What was measured:
[1] = Measurement of LogP values by HPLC on reversed phase columns (EEC directive 79/831 Annex V.A8); format: physicochemical; conditions: reversed phase HPLC column
In short: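 Calibrated with straight-chain alkan-2-ones (3–16 carbons) of known LogP, using retention times with linear interpolation between successive alkanones. Where one method gives several LogP values, all are listed, joined by "+". Lambda-max taken from UV spectra (200–400 nm) at chromatographic peak maxima.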

Venturia inaequalis = experiment: Example H: in vivo preventive test on Venturia test (apples); conditions: 240 h, 100 ppm of active ingredient, preventive spray, evaluated 10 days after inoculation, read-out: efficacy
Protocol: Example H: In Vivo Preventive Test on Venturia Test (Apples) [table] To produce a suitable preparation of active compound, 1 part by weight of active compound is mixed with the stated amounts of solvent and emulsifier, and the concentrate is diluted with water to the desired concentration. To test for preventive activity, young plants are sprayed with the preparation of active compound at the stated rate of application. After the spray coating has dried on, the plants are inoculated with an aqueous conidia suspension of the causal agent of apple scab (Venturia inaequalis) and then remain for 1 day in an incubation cabinet at approximately 20° C. and a relative atmospheric humidity of 100%. The plants are then placed in a greenhouse at approximately 21° C. and a relative atmospheric humidity of approximately 90%. The test is evaluated 10 days after the inoculation. 0% means an efficacy which corresponds to that of the untreated control, while an efficacy of 100% means that no disease is observed.

[2] = system: Blumeria graminis f.sp. hordei; experiment: Example I: in vivo preventive Blumeria test (barley); conditions: 168 h, 500 ppm of active ingredient, preventive spray, evaluated 7 days after inoculation, read-out: efficacy
Protocol: Example I: In Vivo Preventive Blumeria Test (Barley) [table] To produce a suitable preparation of active compound, 1 part by weight of active compound or active compound combination is mixed with the stated amounts of solvent and emulsifier, and the concentrate is diluted with water to the desired concentration. To test for preventive activity, young plants are sprayed with the preparation of active compound or active compound combination at the stated rate of application. After the spray coating has been dried, the plants are dusted with spores of Blumeria graminis f.sp. hordei. The plants are placed in the greenhouse at a temperature of approximately 18° C. and a relative atmospheric humidity of approximately 80% to promote the development of mildew pustules. The test is evaluated 7 days after the inoculation. 0% means an efficacy which corresponds to that of the untreated control, while an efficacy of 100% means that no disease is observed.

Leptosphaeria nodorum = experiment: Example J: in vivo preventive Leptosphaeria nodorum test (wheat); conditions: Parastagonospora nodorum, 192 h, 500 ppm of active ingredient, preventive spray, evaluated 8 days after inoculation, read-out: efficacy
Protocol: Example J: In Vivo Preventive Leptosphaeria nodorum Test (Wheat) [table] To produce a suitable preparation of active compound, 1 part by weight of active compound or active compound combination is mixed with the stated amounts of solvent and emulsifier, and the concentrate is diluted with water to the desired concentration. To test for preventive activity, young plants are sprayed with the preparation of active compound or active compound combination at the stated rate of application. After the spray coating has been dried, the plants are sprayed with a spore suspension of Leptosphaeria nodorum. The plants remain for 48 hours in an incubation cabinet at approximately 20° C. and a relative atmospheric humidity of approximately 100%. The plants are placed in the greenhouse at a temperature of approximately 25° C. and a relative atmospheric humidity of approximately 80%. The test is evaluated 8 days after the inoculation. 0% means an efficacy which corresponds to that of the untreated control, while an efficacy of 100% means that no disease is observed.

Septoria tritici = experiment: Example L: in vivo preventive Septoria tritici test (wheat); conditions: Zymoseptoria tritici, 504 h, 500 ppm of active ingredient, preventive spray, evaluated 21 days after inoculation, read-out: efficacy
Protocol: Example L: In Vivo Preventive Septoria tritici Test (Wheat) [table] To produce a suitable preparation of active compound, 1 part by weight of active compound or active compound combination is mixed with the stated amounts of solvent and emulsifier, and the concentrate is diluted with water to the desired concentration. To test for preventive activity, young plants are sprayed with the preparation of active compound or active compound combination at the stated rate of application. After the spray coating has been dried, the plants are sprayed with a spore suspension of Septoria tritici. The plants remain for 48 hours in an incubation cabinet at approximately 20° C. and a relative atmospheric humidity of approximately 100% and afterwards for 60 hours at approximately 15° C. in a translucent incubation cabinet at a relative atmospheric humidity of approximately 100%. The plants are placed in the greenhouse at a temperature of approximately 15° C. and a relative atmospheric humidity of approximately 80%. The test is evaluated 21 days after the inoculation. 0% means an efficacy which corresponds to that of the untreated control, while an efficacy of 100% means that no disease is observed.

Botrytis cinerea = experiment: Example A: in vivo preventive test on Botrytis cinerea (grey mould), gherkin; conditions: gherkin plants, preventive spray, evaluated 4 to 5 days after inoculation, read-out: efficacy
Protocol: Example A: In Vivo Preventive Test on Botrytis cinerea (Grey Mould) [table] The active ingredients are made soluble and homogenized in a mixture of Dimethyl sulfoxide/Acetone//Tween® 80 and then diluted in water to the desired concentration. The young plants of gherkin are treated by spraying the active ingredient prepared as described above. Control plants are treated only with an aqueous solution of Acetone/Dimethyl sulfoxide/Tween® 80. After 24 hours, the plants are contaminated by spraying the leaves with an aqueous suspension of Botrytis cinerea spores. The contaminated gherkin plants are incubated for 4 to 5 days at 17° C. and at 90% relative humidity. The test is evaluated 4 to 5 days after the inoculation. 0% means an efficacy which corresponds to that of the control plants while an efficacy of 100% means that no disease is observed.

Sphaerotheca fuliginea = experiment: Example M: in vivo preventive test on Sphaerotheca (cucumbers); comparison of phenoxy-pyridyl compounds vs. known phenoxy-phenyl compounds; conditions: Podosphaera fuliginea, 168 h, rate of application 10 ppm, evaluated 7 days after inoculation, read-out: Efficacy in %
Protocol: Example M: In Vivo Preventive Test on Sphaerotheca (Cucumbers); Comparison of Phenoxy-pyridyl Compounds According to the Invention Vs. Known Phenoxy-phenyl Compounds [table] To produce a suitable preparation of active compound, 1 part by weight of active compound is mixed with the above stated amounts of solvent and emulsifier, and the concentrate is diluted with water to the desired concentration. To test for preventive activity, young plants are sprayed with the preparation of active compound at the stated rate of application. After the spray coating has dried on, the plants are inoculated with an aqueous spore suspension of Sphaerotheca fuliginea. The plants are then placed in a greenhouse at approximately 23° C. and a relative atmospheric humidity of approximately 70%. The test is evaluated 7 days after the inoculation. 0% means an efficacy which corresponds to that of the untreated control, while an efficacy of 100% means that no disease is observed. [table]

[3] = method [a]: LC-UV, acidic range, 0.1% formic acid in water and acetonitrile as eluent

Structure (SMILES) | chromatographic logP [1, 3] | chromatographic logP ([1]; method [b]: LC-UV, neutral range, 0.001 molar ammonium acetate solution in water and acetonitrile as eluent) | chromatographic logP ([1]; method [a], compounds of formula (VII), Table 4) | pest or weed control at 100 ppm (Venturia inaequalis) [%] | pest or weed control at 500 ppm [2] [%] | pest or weed control at 500 ppm (Leptosphaeria nodorum) [%] | pest or weed control at 500 ppm (Septoria tritici) [%] | pest or weed control (Botrytis cinerea) [%] | pest or weed control at 10 ppm (Sphaerotheca fuliginea) [%]
O=C(Cn1cncn1)c1ccc(Oc2ccc(Cl)cc2)nc1C(F)(F)F [VII.01, 1-[6-(4-chlorophenoxy)-2-(trifluoromethyl)-3-pyridyl]-2-(1,2,4-triazol-1-yl)ethanone] | – | – | 2.92 | 90 to 100 | 90 to 100 | 90 to 100 | 90 to 100 | – | 78
OC(Cn1cncn1)c1ccc(Oc2ccc(Cl)cc2)nc1Cl (centres unmarked) [I.14] | 2.42 | – | – | 90 to 100 | 90 to 100 | 70 to 79 | – | 90 to 100 | 83
CC(O)(Cn1cncn1)c1ccc(Oc2ccc(Cl)cc2)nc1C(F)(F)F (centres unmarked) [I.01, 2-[6-(4-chlorophenoxy)-2-(trifluoromethyl)-3-pyridyl]-1-(1,2,4-triazol-1-yl)propan-2-ol] | 2.88 | – | – | 90 to 100 | 90 to 100 | 90 to 100 | 90 to 100 | 90 to 100 | 100

More lines, main results first:

chromatographic logP [1, 3] | chromatographic logP ([1]; method [b]: LC-UV, neutral range, 0.001 molar ammonium acetate solution in water and acetonitrile as eluent) | chromatographic logP ([1]; method [a], compounds of formula (VII), Table 4) | Structure (SMILES) | pest or weed control at 100 ppm (Venturia inaequalis) [%] | pest or weed control at 500 ppm [2] [%] | pest or weed control at 500 ppm (Leptosphaeria nodorum) [%] | pest or weed control at 500 ppm (Septoria tritici) [%] | pest or weed control (Botrytis cinerea) [%] | pest or weed control at 10 ppm (Sphaerotheca fuliginea) [%]
2.9 | – | – | CC(O)(Cn1cncn1)c1cnc(Oc2ccc(Cl)cc2)cc1C(F)(F)F (centres unmarked) [I.02, 2-[6-(4-chlorophenoxy)-4-(trifluoromethyl)-3-pyridyl]-1-(1,2,4-triazol-1-yl)propan-2-ol] | 90 to 100 | 90 to 100 | 90 to 100 | 90 to 100 | – | –
2.1 | 2.06 | – | CC(O)(Cn1cncn1)c1cnc(Oc2ccccc2)cc1Cl (centres unmarked) [I.05] | 90 to 100 | 90 to 100 | 80 to 89 | 90 to 100 | 90 to 100 | 71
2.41 | – | – | CC(O)(Cn1cncn1)c1ccc(Oc2ccc(C(F)F)cc2)nc1Cl (centres unmarked) [I.39] | 80 to 89 | 90 to 100 | 70 to 79 | 70 to 79 | 90 to 100 | 97
2.7 | – | – | OC(Cn1cncn1)c1ccc(Oc2ccc(Cl)cc2)nc1C(F)(F)F (centres unmarked) [I.03, 1-[6-(4-chlorophenoxy)-2-(trifluoromethyl)-3-pyridyl]-2-(1,2,4-triazol-1-yl)ethanol] | 90 to 100 | – | 80 to 89 | 90 to 100 | 90 to 100 | –
